# Reference: ChEMBL document CHEMBL1201861, “Genomics of Drug Sensitity in Cancer screening data, Wellcome Trust Sanger Institute”
# Tests used:
# Experiment in all cases: cells
# [1] = tested on: PA-1; type: functional, cell-based, Homo sapiens; conditions: Homo sapiens, PA-1;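 also: IC50 for suppression of PA-1 cell proliferation, determined with a cell viability read-out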
# Description: SANGER: Inhibition of human PA-1 cell growth in a cell viability assay.
# [2] = tested on: LU-139; type: functional, cell-based; conditions: Homo sapiens
# Description: SANGER: Inhibition of human LU-139 cell growth in a cell viability assay.
# [3] = tested on: NCI-H747; type: functional, cell-based; conditions: Homo sapiens;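 also: growth inhibition of human NCI-H747 cells, read out by a cell viability assay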
# Description: SANGER: Inhibition of human NCI-H747 cell growth in a cell viability assay.
# [4] = tested on: LS-513; type: functional, cell-based, Homo sapiens; conditions: Homo sapiens, LS-513
# Description: SANGER: Inhibition of human LS-513 cell growth in a cell viability assay.
# [5] = tested on: HT-3; type: functional, cell-based, Homo sapiens; conditions: Homo sapiens, HT-3;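 also: growth inhibition measured with a cell viability readout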
# Description: SANGER: Inhibition of human HT-3 cell growth in a cell viability assay.
# [6] = tested on: A-375; type: functional, cell-based, Homo sapiens; conditions: Homo sapiens, A-375;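 also: growth inhibition of A375 cells, read out with a cell viability assay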
# Description: SANGER: Inhibition of human A375 cell growth in a cell viability assay.
# [7] = tested on: KYSE-520 cell line; type: functional, cell-based, Homo sapiens; conditions: Homo sapiens, KYSE-520;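 also: growth inhibition of human KYSE-520 cells, read out with a viability assay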
# Description: SANGER: Inhibition of human KYSE-520 cell growth in a cell viability assay.
# [8] = tested on: TE-12; type: functional, cell-based; conditions: Homo sapiens;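 also: growth inhibition of TE-12 cells, read out by a cell viability assay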
# Description: SANGER: Inhibition of human TE-12 cell growth in a cell viability assay.
# [9] = tested on: HH; type: functional, cell-based; conditions: Homo sapiens
# Description: SANGER: Inhibition of human HH cell growth in a cell viability assay.
# [10] = tested on: MPP-89; type: functional, cell-based, Homo sapiens; conditions: Homo sapiens, MPP-89;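 also: growth inhibition of human MPP-89 cells, read out with a cell viability assay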
# Description: SANGER: Inhibition of human MPP-89 cell growth in a cell viability assay.
# [11] = tested on: P12-Ichikawa; type: functional, cell-based; conditions: Homo sapiens
# [12] = tested on: SF-295; type: functional, cell-based, Homo sapiens; conditions: Homo sapiens, SF-295; read-out: IC50;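 also: growth inhibition of SF-295 cells, read out with a cell viability assay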
# Description: SANGER: Inhibition of human SF295 cell growth in a cell viability assay.
# [13] = tested on: NCI-H2126; type: functional, cell-based, Homo sapiens; conditions: Homo sapiens, NCI-H2126;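 also: growth inhibition of the cancer cell line, determined with a cell viability readout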
# Description: SANGER: Inhibition of human NCI-H2126 cell growth in a cell viability assay.
# [14] = tested on: A-431; type: functional, cell-based, Homo sapiens; conditions: Homo sapiens, A-431;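 also: growth inhibition of A-431 cells, determined with a cell viability read-out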
# Description: SANGER: Inhibition of human A431 cell growth in a cell viability assay.
# [15] = tested on: Detroit 562; type: functional, cell-based, Homo sapiens; conditions: Homo sapiens, Detroit 562;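 also: growth inhibition of human Detroit 562 cells, read out by a cell viability assay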
# Description: SANGER: Inhibition of human Detroit562 cell growth in a cell viability assay.
# [16] = tested on: SW837; type: functional, cell-based, Homo sapiens; conditions: Homo sapiens, SW837;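 also: growth inhibition of SW837 cells, determined with a cell viability assay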
# Description: SANGER: Inhibition of human SW837 cell growth in a cell viability assay.
# [17] = tested on: Ca9-22; type: functional, cell-based, Homo sapiens; conditions: Homo sapiens, Ca9-22;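 also: growth inhibition of Ca9-22 cells, read out with a cell viability assay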
# Description: SANGER: Inhibition of human Ca9-22 cell growth in a cell viability assay.
# [18] = tested on: RERF-LC-MS; type: functional, cell-based, Homo sapiens; conditions: Homo sapiens, RERF-LC-MS;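 also: growth inhibition of human RERF-LC-MS cells, read out by a cell viability assay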
# Description: SANGER: Inhibition of human RERF-LC-MS cell growth in a cell viability assay.
# [19] = tested on: GT3TKB; type: functional, cell-based, Homo sapiens; conditions: Homo sapiens, GT3TKB;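 also: growth inhibition of the cell line, read out with a cell viability assay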
# Description: SANGER: Inhibition of human GT3TKB cell growth in a cell viability assay.
# [20] = tested on: NCI-H2087; type: functional, cell-based, Homo sapiens; conditions: Homo sapiens, NCI-H2087;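 also: growth inhibition determined with a cell viability readout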
# Description: SANGER: Inhibition of human NCI-H2087 cell growth in a cell viability assay.
# [21] = tested on: AGS; type: functional, cell-based, Homo sapiens; conditions: Homo sapiens, AGS;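 also: growth inhibition of AGS cells, determined with a cell viability assay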
# Description: SANGER: Inhibition of human AGS cell growth in a cell viability assay.
# [22] = tested on: NCI-H720; type: functional, cell-based; conditions: Homo sapiens;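 also: growth inhibition of human NCI-H720 cells determined by a cell viability assay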
# Description: SANGER: Inhibition of human NCI-H720 cell growth in a cell viability assay.
# [23] = tested on: CW-2; type: functional, cell-based, Homo sapiens; conditions: Homo sapiens, CW-2;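 also: growth inhibition of CW-2 cells, read out by a cell viability assay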
# Description: SANGER: Inhibition of human CW-2 cell growth in a cell viability assay.
# [24] = tested on: FaDu; type: functional, cell-based, Homo sapiens; conditions: Homo sapiens, FaDu;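 also: cell viability readout of growth inhibition in FaDu cells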
# Description: SANGER: Inhibition of human FADU cell growth in a cell viability assay.
# [25] = tested on: NCI-H650; type: functional, cell-based, Homo sapiens; conditions: Homo sapiens, NCI-H650;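 also: growth inhibition of NCI-H650 cells, read out by a viability assay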
# Description: SANGER: Inhibition of human NCI-H650 cell growth in a cell viability assay.
# [26] = tested on: PC-3; type: functional, cell-based, Homo sapiens; conditions: Homo sapiens, PC-3;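 also: cell viability assay measuring growth inhibition of PC-3 cells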
# Description: SANGER: Inhibition of human PC-3 cell growth in a cell viability assay.
# [27] = tested on: ONS-76; type: functional, cell-based, Homo sapiens; conditions: Homo sapiens, ONS-76;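 also: growth inhibition of human ONS-76 cells, read out with a cell viability assay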
# Description: SANGER: Inhibition of human ONS-76 cell growth in a cell viability assay.
# [28] = tested on: MDA-MB-415; type: functional, cell-based; conditions: Homo sapiens
# [29] = tested on: NEC8; type: functional, cell-based, Homo sapiens; conditions: Homo sapiens, NEC8;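 also: growth inhibition of human NEC8 cells, read out by a cell viability assay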
# Description: SANGER: Inhibition of human NEC8 cell growth in a cell viability assay.
# [30] = tested on: EM-2; type: functional, cell-based; conditions: Homo sapiens;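 also: growth inhibition of EM-2 cells, read out with a cell viability assay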
# Description: SANGER: Inhibition of human EM-2 cell growth in a cell viability assay.
# [31] = tested on: SK-HEP1; type: functional, cell-based, Homo sapiens, SK-HEP-1; conditions: Homo sapiens, SK-HEP1;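 also: cell viability readout used to quantify reduction in proliferation of human SK-HEP-1 cells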
# Description: SANGER: Inhibition of human SK-HEP-1 cell growth in a cell viability assay.
# [32] = tested on: NOS-1; type: functional, cell-based, Homo sapiens; conditions: Homo sapiens, NOS-1;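 also: growth inhibition of the human NOS-1 cell line, read out with a cell viability assay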
# Description: SANGER: Inhibition of human NOS-1 cell growth in a cell viability assay.
# [33] = tested on: HEC-1; type: functional, cell-based, Homo sapiens; conditions: Homo sapiens, HEC-1;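 also: growth inhibition of the cell line, read out with a cell viability assay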
# Description: SANGER: Inhibition of human HEC-1 cell growth in a cell viability assay.
# [34] = tested on: LCLC-97TM1; type: functional, cell-based, Homo sapiens; conditions: Homo sapiens, LCLC-97TM1;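 also: cell viability assay measuring growth inhibition of human LCLC-97TM1 cells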
# Description: SANGER: Inhibition of human LCLC-97TM1 cell growth in a cell viability assay.
# [35] = tested on: HEL; type: functional, cell-based, Homo sapiens; conditions: Homo sapiens, HEL;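 also: growth inhibition of HEL cells, read out with a cell viability assay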
# Description: SANGER: Inhibition of human HEL cell growth in a cell viability assay.
# [36] = tested on: J82; type: functional, cell-based; conditions: Homo sapiens;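 also: growth inhibition of J82 cells, read out with a cell viability assay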
# Description: SANGER: Inhibition of human J82 cell growth in a cell viability assay.
# [37] = tested on: KU-19-19; type: functional, cell-based, Homo sapiens; conditions: Homo sapiens, KU-19-19
# Description: SANGER: Inhibition of human KU-19-19 cell growth in a cell viability assay.
# [38] = tested on: HT; type: functional, cell-based; conditions: Homo sapiens
# Description: SANGER: Inhibition of human HT cell growth in a cell viability assay.
# [39] = tested on: EW-13; type: functional, cell-based; conditions: Homo sapiens;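 also: growth inhibition of EW-13 cells, read out with a cell viability assay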
# Description: SANGER: Inhibition of human EW-13 cell growth in a cell viability assay.
# [40] = tested on: LAMA-84; type: functional, cell-based; conditions: Homo sapiens;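 also: growth inhibition of LAMA-84 cells, read out with a cell viability assay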
# Description: SANGER: Inhibition of human LAMA-84 cell growth in a cell viability assay.
# [41] = tested on: NCI-H2228; type: functional, cell-based, Homo sapiens; conditions: Homo sapiens, NCI-H2228;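 also: growth inhibition of human NCI-H2228 cells, read out by a cell viability assay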
# Description: SANGER: Inhibition of human NCI-H2228 cell growth in a cell viability assay.
# [42] = tested on: LB2518-MEL; type: functional, cell-based, Homo sapiens; conditions: Homo sapiens, LB2518-MEL;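 also: growth inhibition of human LB2518-MEL cells, measured with a cell viability assay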
# Description: SANGER: Inhibition of human LB2518-MEL cell growth in a cell viability assay.
# [43] = tested on: TE-9; type: functional, cell-based, Homo sapiens; conditions: Homo sapiens, TE-9;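 also: cell growth inhibition, measured with a cell viability readout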
# Description: SANGER: Inhibition of human TE-9 cell growth in a cell viability assay.
# [44] = tested on: A3-KAW; type: functional, cell-based; conditions: Homo sapiens;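 also: growth inhibition of human A3-KAW cells, read out with a cell viability assay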
# Description: SANGER: Inhibition of human A3-KAW cell growth in a cell viability assay.
# [45] = tested on: CAL-85-1; type: functional, cell-based; conditions: Homo sapiens;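 also: growth inhibition of human CAL-85-1 cells, read out with a cell viability assay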
# Description: SANGER: Inhibition of human CAL-85-1 cell growth in a cell viability assay.
# [46] = tested on: HPAF-II; type: functional, cell-based, Homo sapiens; conditions: Homo sapiens, HPAF-II;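 also: growth inhibition of HPAF-II cells, read out with a cell viability assay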
# Description: SANGER: Inhibition of human HPAF-II cell growth in a cell viability assay.
# [47] = tested on: AM-38; type: functional, cell-based, Homo sapiens; conditions: Homo sapiens, AM-38;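 also: growth inhibition of AM-38 cells of human origin, read out by a cell viability assay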
# Description: SANGER: Inhibition of human AM-38 cell growth in a cell viability assay.
# [48] = tested on: COLO-824; type: functional, cell-based, Homo sapiens; conditions: Homo sapiens, COLO-824
# Description: SANGER: Inhibition of human COLO-824 cell growth in a cell viability assay.
# [49] = tested on: LS-411N; type: functional, cell-based, Homo sapiens; conditions: Homo sapiens, LS-411N
# [50] = tested on: PSN1; type: functional, cell-based, Homo sapiens; conditions: Homo sapiens, PSN1;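 also: suppression of growth of human PSN1 cells, read out by a cell viability assay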
# Description: SANGER: Inhibition of human PSN1 cell growth in a cell viability assay.
# [51] = tested on: Ca-Ski; type: functional, cell-based; conditions: Homo sapiens;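 also: cell viability assay measuring inhibition of Ca-Ski cell growth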
# Description: SANGER: Inhibition of human Ca-Ski cell growth in a cell viability assay.
# [52] = tested on: COLO-678; type: functional, cell-based, Homo sapiens; conditions: Homo sapiens, COLO-678
# Description: SANGER: Inhibition of human COLO-678 cell growth in a cell viability assay.
# [53] = tested on: Capan-2; type: functional, cell-based, Homo sapiens; conditions: Homo sapiens, Capan-2;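 also: Capan-2 cell growth inhibition, read out with a viability assay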
# Description: SANGER: Inhibition of human Capan-2 cell growth in a cell viability assay.
smiles,measurement,setting,value
COc1cc([C@@H]2c3cc4c(cc3[C@@H](O[C@@H]3O[C@@H]5CO[C@@H](C)O[C@H]5[C@H](O)[C@H]3O)[C@H]3COC(=O)[C@H]23)OCO4)cc(OC)c1O [ETOPOSIDE],IC50,[1],132 nM
same,IC50,[2],4010 nM
same,IC50,[3],> 16000 nM
same,IC50,[4],> 16000 nM
same,IC50,[5],1130 nM
same,IC50,[6],631 nM
same,IC50,[7],> 16000 nM
same,IC50,[8],> 16000 nM
same,IC50,[9],4440 nM
same,IC50,[10],> 16000 nM
same,IC50,[11],317 nM
same,IC50,[12],1660 nM
same,IC50,[13],10400 nM
same,IC50,[14],798 nM
same,IC50,[15],11100 nM
same,IC50,[16],> 16000 nM
same,IC50,[17],2190 nM
same,IC50,[18],2490 nM
same,IC50,[19],406 nM
same,IC50,[20],763 nM
same,IC50,[21],318 nM
same,IC50,[22],> 16000 nM
same,IC50,[23],> 16000 nM
same,IC50,[24],1280 nM
same,IC50,[25],1710 nM
same,IC50,[26],> 16000 nM
same,IC50,[27],754 nM
same,IC50,[28],> 16000 nM
same,IC50,[29],539 nM
same,IC50,[30],1580 nM
same,IC50,[31],267 nM
same,IC50,[32],3580 nM
same,IC50,[33],2370 nM
same,IC50,[34],766 nM
same,IC50,[35],3900 nM
same,IC50,[36],3340 nM
same,IC50,[37],> 16000 nM
same,IC50,[38],15300 nM
same,IC50,[39],88.9 nM
same,IC50,[40],9210 nM
same,IC50,[41],2660 nM
same,IC50,[42],> 16000 nM
same,IC50,[43],55.9 nM
same,IC50,[44],358 nM
same,IC50,[45],2160 nM
same,IC50,[46],> 16000 nM
same,IC50,[47],3670 nM
same,IC50,[48],> 16000 nM
same,IC50,[49],925 nM
same,IC50,[50],> 16000 nM
same,IC50,[51],2330 nM
same,IC50,[52],> 16000 nM
same,IC50,[53],> 16000 nM
